Patent publication US8288371B2, “Ortho pyrrolidine, benzyl-substituted heterocycle CCR1 antagonists for autoimmune diseases and inflammation” (Pharmacopeia, LLC, priority 2007, dated 2012)

Each compound was assayed against T1, human CCR1 (Homo sapiens, UniProt P32246) (assay: CCR1 binding protocol (SPA, [125I]-MIP-1α displacement)). Details: cell membrane expressing human CCR1, 0.1 nM [125I]-MIP-1α, 4 hours at ambient temperature; read-out: Relative potency (IC50).
T1 sequence (P32246 1-355): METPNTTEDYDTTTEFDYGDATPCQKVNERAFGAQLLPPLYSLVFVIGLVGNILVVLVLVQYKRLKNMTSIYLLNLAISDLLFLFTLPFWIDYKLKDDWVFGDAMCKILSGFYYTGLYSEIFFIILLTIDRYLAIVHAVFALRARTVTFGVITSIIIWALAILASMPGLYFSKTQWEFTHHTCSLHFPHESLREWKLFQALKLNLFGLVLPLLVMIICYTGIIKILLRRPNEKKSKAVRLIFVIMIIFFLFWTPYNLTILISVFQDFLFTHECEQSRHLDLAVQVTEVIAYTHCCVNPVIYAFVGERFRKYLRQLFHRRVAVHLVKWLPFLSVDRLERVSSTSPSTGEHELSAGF
In short: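 Displacement of 0.1 nM [125I]-MIP-1α (final) from membranes expressing human CCR1 was measured by scintillation proximity after 4 h at ambient temperature. Conditions: pH 7.4 Tris buffer with 0.1% BSA and MnCl, and 0.5 μg membrane per well. Compounds were tested as a 10-step ½-log series from a 10 mM DMSO stock to derive IC50.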
With Cc1nnc([C@H]2CCCN2C(=O)Nc2ccc(Cl)cc2F)n1Cc1ccc(Br)cc1 [Compound 534] the IC50 was 50 to 500 nM.
Cc1nc(C(F)(F)F)ccc1NC(=O)N1CCC[C@@H]1c1nnc(C)n1Cc1ccc(Br)cc1 [Compound 535] showed an IC50 of less than 50 nM.
With Cc1nnc([C@H]2CCCN2c2c(Nc3ccc(Cl)cc3F)c(=O)c2=O)n1Cc1ccc(Cl)cc1 [Compound 536] the IC50 was 500 to 5000 nM.
Cc1nnc([C@H]2CCCN2C(=O)N[C@H]2CCOc3cc(C(F)(F)F)ccc32)n1Cc1ccc(Br)cc1 [Compound 537] gave an IC50 of less than 50 nM.
Work on Cc1nc(C(F)(F)F)ccc1NC(=O)N1CCC[C@@H]1c1nnc(C)n1Cc1cccc(Cl)c1 [Compound 538] yielded an IC50 of 500 to 5000 nM.
Cc1nc(C(F)(F)F)ccc1N/C(=N\C#N)N1CCC[C@@H]1c1nnc(C)n1Cc1ccc(Cl)cc1 [Compound 539] gave an IC50 of 50 to 500 nM.
For Cc1nnc([C@H]2CCCN2C(=O)N[C@H]2CCOc3cc(C(F)(F)F)ccc32)n1Cc1cccc(Br)c1 [Compound 540], the IC50 was 500 to 5000 nM.
COC1C[C@H](c2nnc(C)n2Cc2ccc(Cl)cc2)N(C(=O)Nc2ccc(Cl)cc2F)C1 (some centres unmarked) [Compound 541] showed an IC50 of 50 to 500 nM.
For COC1C[C@H](c2nnc(C)n2Cc2ccc(Cl)cc2)N(C(=O)Nc2ccc(C(F)(F)F)nc2C)C1 (some centres unmarked) [Compound 542], the IC50 was 50 to 500 nM.
COC1C[C@H](c2nnc(C)n2Cc2ccc(Cl)cc2)N(C(=O)N[C@H]2CCOc3cc(C(F)(F)F)ccc32)C1 (some centres unmarked) [Compound 543] was tested, and the IC50 was 50 to 500 nM.
With Cc1nc(C(F)(F)F)ccc1NC(=O)N1CC2CC2C1c1nnc(C)n1Cc1ccc(Cl)cc1 (centres unmarked) [Compound 544] the IC50 was 50 to 500 nM.
Cc1nnc(C2C3CC3CN2C(=O)Nc2ccc(Cl)cc2F)n1Cc1ccc(Cl)cc1 (centres unmarked) [Compound 545] gave an IC50 of 50 to 500 nM.
Compound Cc1nnc(C2C3CC3CN2C(=O)N[C@H]2CCOc3cc(C(F)(F)F)ccc32)n1Cc1ccc(Cl)cc1 (some centres unmarked) [Compound 546] has an IC50 of 50 to 500 nM.
Work on Cc1nnc(C2C3CC3CN2C(=O)NC(c2ccccc2)c2ccccc2)n1Cc1ccc(Cl)cc1 (centres unmarked) [Compound 547] yielded an IC50 of 50 to 500 nM.
Compound Cc1nc(C(F)(F)F)ccc1NC(=O)N1CCC[C@@H]1c1ncnn1Cc1ccc(Cl)cc1 [Compound 548] has an IC50 of 50 to 500 nM.
Work on Cc1nc(C(F)(F)F)ccc1NC(=O)N1CCC[C@@H]1c1nnc(Cl)n1Cc1ccc(Cl)cc1 [Compound 549] yielded an IC50 of less than 50 nM.
Work on Cc1nnc([C@H]2CCCN2C(=O)Nc2ccc(-c3ncccn3)cc2)n1Cc1ccc(Cl)cc1 [Compound 550] yielded an IC50 of 500 to 5000 nM.
Work on Cc1nnc([C@H]2CCCN2C(=O)Nc2ccc(OC3CCOCC3)nc2)n1Cc1ccc(Cl)cc1 [Compound 551] yielded an IC50 of 500 to 5000 nM.
O=C(Nc1ccc(Cl)cc1F)N1CCC[C@@H]1c1nnc(Cl)n1Cc1ccc(Cl)cc1 [Compound 552] was tested, and the IC50 was less than 50 nM.
Cc1nc(C(F)(F)F)ccc1NC(=O)N1CCC[C@@H]1c1nnc(C)n1Cc1cccc(Br)c1 [Compound 553] was tested, and the IC50 was 500 to 5000 nM.
Cc1noc(C)c1NC(=O)N1CCC[C@@H]1c1nnc(C)n1Cc1ccc(Br)cc1 [Compound 554] gave an IC50 of 50 to 500 nM.
In the case of Cc1noc(C)c1Nc1c(N2CCC[C@@H]2c2nnc(C)n2Cc2ccc(Cl)cc2)c(=O)c1=O [Compound 555], the IC50 is reported as 500 to 5000 nM.
Work on O=C(Nc1ccc(Cl)cc1F)N1CCC[C@@H]1c1nncn1Cc1ccc(Cl)cc1 [Compound 556] yielded an IC50 of less than 50 nM.
Work on Cc1nc(C(F)(F)F)ccc1NC(=O)N1CCC[C@@H]1c1nncn1Cc1ccc(Cl)cc1 [Compound 557] yielded an IC50 of less than 50 nM.
Cc1nnc([C@H]2C[C@@H](O)CN2C(=O)Nc2ccc(OC3CCOCC3)nc2)n1Cc1ccc(Cl)cc1 [Compound 558] gave an IC50 of 500 to 5000 nM.
Cc1cc(C)c(S(=O)(=O)N(C)C)cc1NC(=O)N1CCC[C@@H]1c1nnc(C)n1Cc1ccc(Br)cc1 [Compound 559] showed an IC50 of less than 50 nM.
Work on CC[C@H](NC(=O)N1CCC[C@@H]1c1nnc(C)n1Cc1ccc(F)cc1)c1ccc(C(F)(F)F)nc1 [Compound 560] yielded an IC50 of less than 50 nM.
Compound CC[C@H](NC(=O)N1CCC[C@@H]1c1nnc(C)n1Cc1ccc(Br)cc1)c1ccc(C(F)(F)F)nc1 [Compound 561] has an IC50 of less than 50 nM.
CC[C@H](Nc1c(N2CCC[C@@H]2c2nnc(C)n2Cc2ccc(Cl)cc2)c(=O)c1=O)c1ccc(C(F)(F)F)nc1 [Compound 562] gave an IC50 of 50 to 500 nM.
Cc1nc(C(F)(F)F)ccc1NC(=O)N1CC2CC2[C@@H]1c1nnc(C)n1Cc1ccc(Cl)cc1 (some centres unmarked) [Compound 563] showed an IC50 of less than 50 nM.
Cc1noc(C)c1NC(=O)N1CC2CC2[C@@H]1c1nnc(C)n1Cc1ccc(Cl)cc1 (some centres unmarked) [Compound 564] gave an IC50 of 50 to 500 nM.
Work on Cc1nnc([C@H]2C3CC3CN2C(=O)Nc2ccc(Cl)cc2F)n1Cc1ccc(Cl)cc1 (some centres unmarked) [Compound 565] yielded an IC50 of 50 to 500 nM.
For Cc1nc(C(F)(F)F)ccc1NC(=O)N1CCC[C@@H]1c1ncc(C)n1Cc1ccc(Cl)cc1 [Compound 566], the IC50 was 50 to 500 nM.
Compound Cc1cnc([C@H]2CCCN2C(=O)Nc2ccc(Cl)cc2F)n1Cc1ccc(Cl)cc1 [Compound 567] has an IC50 of 50 to 500 nM.
Work on Cc1nnc([C@H]2CCCN2C(=O)Nc2ccc(Cl)c(C(F)(F)F)c2)n1Cc1ccc(Br)cc1 [Compound 568] yielded an IC50 of 50 to 500 nM.
Compound Cc1nnc([C@H]2CC(F)CN2C(=O)NC(c2ccccc2)c2ccccc2)n1Cc1ccc(Cl)cc1 (some centres unmarked) [Compound 569] has an IC50 of 50 to 500 nM.
In the case of Cc1nnc([C@H]2CC(F)CN2C(=O)NCc2ccc(Cl)c(Cl)c2)n1Cc1ccc(Cl)cc1 (some centres unmarked) [Compound 570], the IC50 is reported as less than 50 nM.
In the case of Cc1nnc([C@H]2CC(F)CN2C(=O)Nc2ccc(Cl)cc2F)n1Cc1ccc(Cl)cc1 (some centres unmarked) [Compound 571], the IC50 is reported as 50 to 500 nM.
Cc1nnc([C@H]2CC(F)CN2C(=O)Nc2ccc(Cl)c(C(F)(F)F)c2)n1Cc1ccc(Cl)cc1 (some centres unmarked) [Compound 572] was tested, and the IC50 was 50 to 500 nM.
For Cc1noc(-c2ccccc2)c1NC(=O)N1CC(F)C[C@@H]1c1nnc(C)n1Cc1ccc(Cl)cc1 (some centres unmarked) [Compound 573], the IC50 was less than 50 nM.
Work on Cc1nnc([C@H]2CC(F)CN2C(=O)N[C@H]2CCOc3cc(C(F)(F)F)ccc32)n1Cc1ccc(Cl)cc1 (some centres unmarked) [Compound 574] yielded an IC50 of less than 50 nM.
With Cc1noc(C)c1NC(=O)N1CC(F)C[C@@H]1c1nnc(C)n1Cc1ccc(Cl)cc1 (some centres unmarked) [Compound 575] the IC50 was less than 50 nM.
Cc1nnc([C@H]2CC(F)CN2C(=O)NC2C[C@@H]2c2ccccc2)n1Cc1ccc(Cl)cc1 (some centres unmarked) [Compound 576] showed an IC50 of 50 to 500 nM.
For CC[C@H](NC(=O)N1CCC[C@@H]1c1nnc(C)n1Cc1ccc(F)cc1)c1ccc(C(F)(F)F)cc1 [Compound 577], the IC50 was less than 50 nM.
Compound CC[C@H](NC(=O)N1CCC[C@@H]1c1nnc(C)n1Cc1ccc(Br)cc1)c1ccc(C(F)(F)F)cc1 [Compound 578] has an IC50 of less than 50 nM.
Compound Cc1nnc([C@H]2CCCN2c2c(Nc3ccc(F)cc3F)c(=O)c2=O)n1Cc1ccc(Cl)cc1 [Compound 579] has an IC50 of 500 to 5000 nM.
Work on Cc1nc(C(F)(F)F)ccc1NC(=O)N1CC(F)C[C@@H]1c1nnc(C)n1Cc1ccc(Cl)cc1 (some centres unmarked) [Compound 580] yielded an IC50 of less than 50 nM.
For Cc1cc(C#N)ccc1NC(=O)N1CC(F)C[C@@H]1c1nnc(C)n1Cc1ccc(Cl)cc1 (some centres unmarked) [Compound 581], the IC50 was 50 to 500 nM.
Work on CCc1nnc([C@H]2CCCN2C(=O)Nc2c(C)noc2C)n1Cc1ccc(Cl)cc1 [Compound 582] yielded an IC50 of 50 to 500 nM.
CCc1nnc([C@H]2CCCN2C(=O)Nc2ccc(Cl)cc2F)n1Cc1ccc(Cl)cc1 [Compound 583] gave an IC50 of less than 50 nM.
In the case of CCc1nnc([C@H]2CCCN2C(=O)Nc2ccc(C(F)(F)F)nc2C)n1Cc1ccc(Cl)cc1 [Compound 584], the IC50 is reported as less than 50 nM.
CC[C@H](NC(=O)N1CCC[C@@H]1c1nnc(C)n1Cc1ccc(Br)cc1)c1cc2ccccc2o1 [Compound 585] was tested, and the IC50 was less than 50 nM.
Work on CC[C@H](NC(=O)N1CCC[C@@H]1c1nnc(C)n1Cc1ccc(F)cc1)c1cc2ccccc2o1 [Compound 586] yielded an IC50 of less than 50 nM.
Cc1cc(C)c(S(=O)(=O)N(C)C)cc1NC(=O)N1CCC[C@@H]1c1nnc(C)n1Cc1ccc(F)cc1 [Compound 587] showed an IC50 of less than 50 nM.
With CC[C@H](Nc1c(N2CCC[C@@H]2c2nnc(C)n2Cc2ccc(Cl)cc2)c(=O)c1=O)c1cc2ccccc2o1 [Compound 588] the IC50 was 50 to 500 nM.
CC[C@H](Nc1c(N2CCC[C@@H]2c2nnc(C)n2Cc2ccc(Cl)cc2)c(=O)c1=O)c1ccc(C(F)(F)F)cc1 [Compound 589] showed an IC50 of 50 to 500 nM.
Cc1onc(NC(=O)N2CCC[C@@H]2c2nnc(C)n2Cc2ccc(Cl)cc2)c1F [Compound 590] gave an IC50 of 50 to 500 nM.
Cc1nnc([C@H]2CCCN2C(=O)NCC2CN(S(C)(=O)=O)C2)n1Cc1ccc(Cl)cc1 [Compound 591] showed an IC50 of 500 to 5000 nM.
Work on CC(=O)N1CCC(CNC(=O)N2CCC[C@@H]2c2nnc(C)n2Cc2ccc(Cl)cc2)C1 (some centres unmarked) [Compound 592] yielded an IC50 of 50 to 500 nM.
For Cc1nnc([C@H]2CCCN2C(=O)NCC2CCN(S(C)(=O)=O)C2)n1Cc1ccc(Cl)cc1 (some centres unmarked) [Compound 593], the IC50 was 50 to 500 nM.
Cc1nnc([C@H]2CCCN2C(=O)NCC2CCOC2)n1Cc1ccc(Cl)cc1 (some centres unmarked) [Compound 594] showed an IC50 of 500 to 5000 nM.
Cc1nnc([C@H]2CCCN2C(=O)Nc2cc(-c3ccc(Cl)cc3)nn2C)n1Cc1ccc(Cl)cc1 [Compound 595] showed an IC50 of 50 to 500 nM.
For Cc1nc(NC(=O)N2CCC[C@@H]2c2nnc(C)n2Cc2ccc(Cl)cc2)sc1C [Compound 596], the IC50 was 500 to 5000 nM.
Work on Cc1sc(NC(=O)N2CCC[C@@H]2c2nnc(C)n2Cc2ccc(Cl)cc2)nc1-c1ccccc1 [Compound 597] yielded an IC50 of 500 to 5000 nM.
CC(=O)N1CCC(CNC(=O)N2CCC[C@@H]2c2nnc(C)n2Cc2ccc(Cl)cc2)CC1 [Compound 598] showed an IC50 of 50 to 500 nM.
Compound CC(=O)N1CCCC(CNC(=O)N2CCC[C@@H]2c2nnc(C)n2Cc2ccc(Cl)cc2)C1 (some centres unmarked) [Compound 599] has an IC50 of 50 to 500 nM.
Work on Cc1nnc([C@H]2CCCN2C(=O)NCC2CCN(S(C)(=O)=O)CC2)n1Cc1ccc(Cl)cc1 [Compound 600] yielded an IC50 of 50 to 500 nM.
With Cc1nnc([C@H]2CCCN2C(=O)NCC2CCCN(S(C)(=O)=O)C2)n1Cc1ccc(Cl)cc1 (some centres unmarked) [Compound 601] the IC50 was 50 to 500 nM.
